Experimental findings from patent US9029559B2, “Substituted 3-heteroaroylamino-propionic acid derivatives and their use as pharmaceuticals” (SANOFI, priority 2011, dated 2015) are described below.

Some results are limits rather than exact numbers.

The target of the first test is Recombinant human cathepsin A (Homo sapiens (Human), UniProt P10619). As to the kind of experiment: Cathepsin A inhibitory activity (cleavage of Bodipy FL-labeled bradykinin, microfluidic capillary electrophoresis). In kind it is biochemical. The settings on record: read-out: Activity (Cathepsin A inhibitory activity, IC50).
Sequence of Recombinant human cathepsin A (P10619 29-326): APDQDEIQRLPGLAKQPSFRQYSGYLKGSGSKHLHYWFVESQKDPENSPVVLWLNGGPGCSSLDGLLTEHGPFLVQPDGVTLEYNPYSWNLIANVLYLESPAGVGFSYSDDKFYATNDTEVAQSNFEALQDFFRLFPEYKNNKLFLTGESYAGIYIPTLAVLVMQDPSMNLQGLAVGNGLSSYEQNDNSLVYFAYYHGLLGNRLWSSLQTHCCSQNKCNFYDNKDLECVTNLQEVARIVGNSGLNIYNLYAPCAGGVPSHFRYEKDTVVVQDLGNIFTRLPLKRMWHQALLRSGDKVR
Sequence of Recombinant human cathepsin A (P10619 327-480): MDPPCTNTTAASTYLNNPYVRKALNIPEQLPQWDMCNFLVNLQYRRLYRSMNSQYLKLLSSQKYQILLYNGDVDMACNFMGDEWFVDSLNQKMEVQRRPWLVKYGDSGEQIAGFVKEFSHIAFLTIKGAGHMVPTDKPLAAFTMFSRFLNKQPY
Description: Pharmacological Tests a) Cathepsin A Inhibitory Activity
Briefly, cathepsin A was incubated at 10 μg/ml with cathepsin L at 1 μg/ml in activation buffer (25 mM 2-(morpholin-4-yl)-ethanesulfonic acid (MES), pH 6.0, containing 5 mM dithiothreitol (DTT)) for 15 min at 37° C.
The activated cathepsin A was diluted in assay buffer (25 mM MES, pH 5.5, containing 5 mM DTT) and mixed with the test compound (dissolved in assay buffer containing (v/v) 3% DMSO) or, in the control experiments, with the vehicle in a multiple assay plate. After incubation for 15 min at room temperature, as substrate then bradykinin carrying an N-terminal ®Bodipy FL (4,4-difluoro-5,7-dimethyl-4-bora-3a,4a-diaza-s-indacene-3-propionyl) label (JPT Peptide Technologies GmbH; dissolved in assay buffer) was added to the mixture. […] After incubation for 15 min at room temperature the reaction was stopped by the addition of stop buffer (130 mM 2-(4-(2-hydroxy-ethyl)-piperazin-1-yl)-ethanesulfonic acid, pH 7.4, containing (v/v) 0.013% ®Triton X-100, 0.13% Coating Reagent 3 (Caliper Life Sciences), 6.5% DMSO and 20 μM ebelactone B (Sigma, #E0886)).
Uncleaved substrate and product were then separated by a microfluidic capillary electrophoresis on a LabChip® 3000 Drug Discovery System (12-Sipper-Chip; Caliper Life Sciences) and quantified by determination of the respective peak areas. Substrate turnover was calculated by dividing product peak area by the sum of substrate and product peak areas, and the enzyme activity and the inhibitory effect of the test compound thus quantified.
By IC50 is commonly meant the concentration that gives 50% inhibition. As for `COc1ccc(C(=O)NC(CC(=O)O)c2ccccc2Cl)nc1Br` (centres unmarked) [compound 598, 3-[(6-Bromo-5-methoxy-pyridine-2-carbonyl)-amino]-3-(2-chloro-phenyl)-propionic acid], the IC50 stood at 1.46 µM.

For `O=C(O)C[C@H](NC(=O)c1cccc(-c2ccccc2F)n1)c1ccc(C(F)(F)F)cc1` [compound 608], the 50% inhibitory concentration (IC50) was 6.27 µM.

For the compound `O=C(O)CC(NC(=O)c1cc(Sc2ncccn2)ccn1)c1ccccc1Cl` (centres unmarked) [compound 601], the IC50 came to 3.85 µM.

Still in this test, the particulars now being: read-out: Activity (IC50, cathepsin A inhibition).
Consider `O=C(O)CC(NC(=O)c1ncccc1F)c1ccccc1Cl` (centres unmarked) [compound 530], for which the IC50 came to 5.27 µM.

`COc1ccc(-c2cccc(C(=O)NC(CC(=O)O)c3ccccc3Cl)n2)cc1` (centres unmarked) [compound 595]: the IC50 is 1.42 µM.

Consider `O=C(O)CC(NC(=O)c1cc(O)ccn1)c1ccccc1Cl` (centres unmarked) [compound 529], for which the IC50 came to 5.12 µM.

As to `Cc1ccc([C@H](CC(=O)O)NC(=O)c2cccc(-c3ccccc3Cl)n2)cc1` [compound 580], the IC50 was determined as 15.6 µM.

On to `O=C(O)CC(NC(=O)c1ccc(Oc2ccccc2)nc1)c1ccccc1Cl` (centres unmarked) [compound 585], for which the IC50 turned out to be 8.67 µM.

`O=C(O)CC(NC(=O)c1cncc(-c2ccccc2)c1)c1ccccc1Cl` (centres unmarked) [compound 566]: the IC50 was determined as 11.7 µM.

Take `O=C(O)CC(NC(=O)c1ccnc(N2CCCC2)c1)c1ccccc1Cl` (centres unmarked) [compound 553]: the IC50 came out at 11.1 µM.

As for `O=C(O)C[C@@H](Cc1ccccc1)NC(=O)c1cccc(-c2ccccc2F)n1` [compound 561], the half-maximal inhibitory concentration (IC50) came to 5.33 µM.

Take `O=C(O)CC(NC(=O)c1cccc(Cl)n1)c1ccccc1Cl` (centres unmarked) [compound 540]: the IC50 is 1.6 µM.

The same test, now with this note: read-out: Activity (IC50, cathepsin A inhibitory activity).
On to `Cc1ccccc1[C@H](CC(=O)O)NC(=O)c1cccc(-n2ccnc2)n1` [compound 56], for which the 50% inhibitory concentration (IC50) was 11.1 µM.

`COc1cc(Cl)ccc1-c1nc(C(=O)N[C@@H](CC(=O)O)c2ccc(C)cc2)ccc1OC` [compound 232]: the IC50 turned out to be 2.33 µM.

On to `COc1cccc(-c2cc(C(=O)N[C@@H](CC(=O)O)c3ccccc3C)cnc2OC)c1` [compound 412], for which the 50% inhibitory concentration (IC50) came to 8.36 µM.

`COc1ccc(C(=O)N[C@@H](CC(=O)O)c2ccc(C)cc2)nc1-c1ccc(C)c(F)c1` [compound 223]: the IC50 was 1.29 µM.

Turning to `COc1ccc(C(=O)N[C@@H](CC(=O)O)c2ccccc2Cl)nc1-c1cccnc1` [compound 444], the IC50 is 10.1 µM.

For the compound `COc1cccc(-c2cccc(C(=O)N[C@@H](CC(=O)O)c3ccccc3C)n2)c1` [compound 43], the IC50 worked out at 2.27 µM.

For `COc1ccc(C(C)(C)C)cc1-c1nc(C(=O)N[C@@H](CC(=O)O)c2ccc(C)cc2)ccc1OC` [compound 240], the IC50 was above 10 µM.

In the case of `COc1ccc(C(=O)N[C@@H](CC(=O)O)c2ccccc2Cl)nc1-c1ccccc1C(=O)N(C)C` [compound 454], the IC50 was 2.5 µM.

`COc1ccc(C(C)(C)C)cc1-c1nc(C(=O)N[C@@H](CC(=O)O)c2ccccc2Cl)ccc1OC` [compound 475]: the IC50 is above 10 µM.

Regarding `Cc1ccnc(C(=O)N[C@@H](CC(=O)O)c2ccccc2C)c1` [compound 14], the IC50 amounted to 4.35 µM.

Take `COc1ccc(C(=O)N[C@@H](CC(=O)O)c2ccccc2F)nc1-c1ccc(F)c(C)c1` [compound 292]: the IC50 came out at 4.13 µM.

Regarding `COc1ccc(C(=O)N[C@@H](CC(=O)O)c2ccccc2F)nc1-c1cccc(C(C)=O)c1` [compound 275], the IC50 turned out to be 8.54 µM.

With `COc1ccc(C(=O)N[C@@H](CC(=O)O)c2ccccc2F)nc1-c1ccc(F)cc1` [compound 257], the IC50 was determined as 1.26 µM.

On to `COc1ccc(C(=O)N[C@@H](CC(=O)O)c2ccccc2F)nc1-c1cccc(C)c1` [compound 269], for which the IC50 came to 1.01 µM.

With `COc1ccc(C(=O)N[C@@H](CC(=O)O)c2ccc(C)cc2)nc1-c1ccc(C)o1` [compound 237], the half-inhibitory concentration (IC50) was found to be 3.54 µM.

As to `COc1ccc(C(=O)N[C@@H](CC(=O)O)c2ccccc2Cl)nc1-c1ccc(C)cc1C` [compound 450], the IC50 turned out to be 1.6 µM.

On to `COc1ncc(C(=O)N[C@@H](CC(=O)O)c2ccccc2C)cc1-c1ccc(Cl)cc1` [compound 408], for which the IC50 worked out at 5.73 µM.

On to `COc1ccc(C(=O)N[C@@H](CC(=O)O)c2ccccc2C)nc1-c1cc(C)cnc1Cl` [compound 469], for which the IC50 turned out to be 5.63 µM.

On to `COc1ccc(C(=O)N[C@@H](CC(=O)O)c2ccccc2F)nc1-c1ccc(F)c(F)c1` [compound 280], for which the half-maximal inhibitory concentration (IC50) is 3.12 µM.

As to `Cc1ccccc1[C@H](CC(=O)O)NC(=O)c1cncc(-c2ccc(F)cc2F)c1` [compound 73], the IC50 was found to be 3.25 µM.

Consider `Cc1ccccc1[C@H](CC(=O)O)NC(=O)c1ncccc1F` [compound 33], for which the IC50 worked out at 3.42 µM.

On to `Cc1ccccc1[C@H](CC(=O)O)NC(=O)c1cc(N2CCOCC2)ccn1` [compound 50], for which the IC50 was determined as 7.73 µM.

Consider `COc1ccc(C(=O)N[C@@H](CC(=O)O)c2ccc(C)cc2)nc1-c1ccncc1` [compound 215], for which the IC50 amounted to 9.66 µM.

Turning to `COc1ccc(C(=O)N[C@@H](CC(=O)O)c2ccc(C)cc2)nc1-c1ccc(Cl)c(F)c1` [compound 246], the IC50 is 4.48 µM.

Take `Cc1ccccc1[C@H](CC(=O)O)NC(=O)c1ccccn1` [compound 5]: the IC50 stood at 3.98 µM.

Take `Cc1ccccc1[C@H](CC(=O)O)NC(=O)c1cc(-c2ccccc2)ccn1` [compound 39]: the IC50 was 1.08 µM.

The test is the same for the next values; noted with them: read-out: Activity [μM] (IC50, cathepsin A inhibitory activity).
For `COc1ccc(C(=O)N[C@@H](CC(=O)O)c2ccc(C)cc2)nc1-c1ccc(Cl)cc1Cl` [compound 183], the IC50 was 1.01 µM.

For `COc1ccc(C(=O)N[C@@H](CC(=O)O)c2ccc(C)cc2)nc1-c1ccc(F)c(F)c1` [compound 208], the IC50 came to 7.42 µM.

On to `COc1ccc(C(=O)N[C@@H](CC(=O)O)c2ccccc2F)nc1-c1cccc(F)c1Cl` [compound 324], for which the IC50 worked out at 1.27 µM.

For the compound `Cc1ccccc1[C@H](CC(=O)O)NC(=O)c1cccc(-c2ccccc2C(F)(F)F)n1` [compound 139], the IC50 was 1.09 µM.

For the compound `Cc1ccccc1[C@H](CC(=O)O)NC(=O)c1cccc(-c2cccc(C(F)(F)F)c2)n1` [compound 133], the IC50 is 5.76 µM.

As for `COc1ccc(-c2nc(C(=O)N[C@@H](CC(=O)O)c3ccccc3Cl)ccc2OC)cc1` [compound 335], the IC50 stood at 2.25 µM.

Turning to `COc1ccc(C(=O)N[C@@H](CC(=O)O)c2ccccc2C)nc1-c1ccc(C)c(F)c1` [compound 370], the IC50 was 1.58 µM.

With `COc1ccc(C(=O)N[C@@H](CC(=O)O)c2ccccc2F)nc1-c1cc(C)ccc1Cl` [compound 323], the IC50 amounted to 2.31 µM.

In the case of `Cc1ccc(-c2cccc(C(=O)N[C@@H](CC(=O)O)c3ccccc3C)n2)cc1C` [compound 153], the IC50 is 1.19 µM.

Consider `COc1ccc(C(=O)N[C@@H](CC(=O)O)c2ccccc2C)nc1-c1ccncc1` [compound 365], for which the IC50 is 5.45 µM.

For `COc1ccc(C(=O)N[C@@H](CC(=O)O)c2ccccc2F)nc1-c1ccc(C#N)cc1F` [compound 325], the IC50 is 3.58 µM.

Regarding `Cc1ccccc1[C@H](CC(=O)O)NC(=O)c1cccc(-c2ccc(C(F)(F)F)cc2)n1` [compound 138], the IC50 was found to be 6.83 µM.

Consider `COc1ccc(C(=O)N[C@@H](CC(=O)O)c2ccc(C)cc2)nc1-c1cccc(Cl)c1` [compound 193], for which the IC50 turned out to be 2.74 µM.

Regarding `COc1ccc(C(=O)N[C@@H](CC(=O)O)c2ccccc2C)nc1-c1cccc(C(C)=O)c1` [compound 360], the IC50 came to 2.42 µM.

As to `COc1ccc(C(=O)N[C@@H](CC(=O)O)c2ccccc2C)nc1-c1cccc(C(C)(C)O)c1` [compound 385], the IC50 was found to be 1.15 µM.

Turning to `Cc1ccccc1[C@H](CC(=O)O)NC(=O)c1cccc(-c2ccc(C#N)cc2)n1` [compound 146], the IC50 was determined as 2.16 µM.

As for `COc1ccc(C(=O)N[C@@H](CC(=O)O)c2ccccc2F)nc1-c1ccnc(N2CCOCC2)c1` [compound 321], the half-inhibitory concentration (IC50) was above 10 µM.

On to `COc1ccc(F)c(-c2nc(C(=O)N[C@@H](CC(=O)O)c3ccccc3F)ccc2OC)c1` [compound 307], for which the IC50 was determined as 2.92 µM.
